Test results taken from patent US10954232B2, “Pyrazole derivative as ALK5 inhibitor and uses thereof” (HANMI PHARMACEUTICAL CO., LTD., priority 2016, dated 2021).

Target: T1, ALK5 kinase (Homo sapiens, UniProt P36897)
T1 construct: GST; purchased Thermo Fisher Scientific Solutions
T1 sequence (P36897 34-503): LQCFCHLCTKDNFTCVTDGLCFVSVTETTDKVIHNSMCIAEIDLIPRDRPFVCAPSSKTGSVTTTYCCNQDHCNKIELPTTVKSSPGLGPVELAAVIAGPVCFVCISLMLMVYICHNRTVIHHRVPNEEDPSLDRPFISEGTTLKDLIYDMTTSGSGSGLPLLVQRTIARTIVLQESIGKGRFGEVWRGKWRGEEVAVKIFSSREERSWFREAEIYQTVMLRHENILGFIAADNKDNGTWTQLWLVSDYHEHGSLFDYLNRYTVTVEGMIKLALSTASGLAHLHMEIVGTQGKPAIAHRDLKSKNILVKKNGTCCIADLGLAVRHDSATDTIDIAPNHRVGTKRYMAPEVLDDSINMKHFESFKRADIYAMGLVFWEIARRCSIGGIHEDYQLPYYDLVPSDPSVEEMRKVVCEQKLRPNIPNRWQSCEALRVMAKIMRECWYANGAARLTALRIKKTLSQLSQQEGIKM
Experiment: Activity inhibition test on ALK5 enzyme (LanthaScreen Eu binding kinase assay)
Settings: kinase tracer 178, 60 minutes at room temperature
Outline: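 IC50 is the concentration giving 50% inhibition relative to control, taken from fluorescence after 60 min stirring at room temperature. Final mix held kinase 5 nM, Eu-GST binding antibody 2 nM and tracer 178 10 nM. Compounds were serially diluted from 1 μM to 0.0001 μM.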

SMILES | IC50 [nM]
Cc1cccc(NC(=O)c2cc(-c3ccc4ncnn4c3)n(-c3cccc(C)n3)n2)c1 [Example 116, 5-([1,2,4]triazolo[1,5-α]pyridin-6-yl)-1-(6-methylpyridin-2-yl)-N-(m-tolyl)-1H-pyrazole-3-carboxyamide] | ~10
Cc1ccc(NC(=O)c2cc(-c3ccc4ncnn4c3)n(-c3cccc(C)n3)n2)cc1 [Example 117, 5-([1,2,4]triazolo[1,5-α]pyridin-6-yl)-1-(6-methylpyridin-2-yl)-N-(p-tolyl)-1H-pyrazole-3-carboxyamide] | 10 to 100
Cc1cccc(-n2nc(C(=O)Nc3cccc(C(F)(F)F)c3)cc2-c2ccc3ncnn3c2)n1 [Example 118, 5-([1,2,4]triazolo[1,5-α]pyridin-6-yl)-1-(6-methylpyridin-2-yl)-N-(3-(trifluoromethyl)phenyl)-1H-pyrazole-3-carboxyamide] | 10 to 100
C=Cc1ccc(NC(=O)c2cc(-c3ccc4ncnn4c3)n(-c3cccc(C)n3)n2)cc1 [Example 119, 5-([1,2,4]triazolo[1,5-α]pyridin-6-yl)-1-(6-methylpyridin-2-yl)-N-(4-vinylphenyl)-1H-pyrazole-3-carboxyamide] | < 10
Cc1cccc(-n2nc(C(=O)Nc3cccc(C#N)c3)cc2-c2ccc3ncnn3c2)n1 [Example 120, 5-([1,2,4]triazolo[1,5-α]pyridin-6-yl)-N-(3-cyanophenyl)-1-(6-methylpyridin-2-yl)-1H-pyrazole-3-carboxyamide] | 10 to 100
Cc1cccc(-n2nc(C(=O)Nc3ccc(C#N)cc3)cc2-c2ccc3ncnn3c2)n1 [Example 121, 5-([1,2,4]triazolo[1,5-α]pyridin-6-yl)-N-(4-cyanophenyl)-1-(6-methylpyridin-2-yl)-1-H-pyrazole-3-carboxyamide] | 10 to 100
CC(=O)c1cccc(NC(=O)c2cc(-c3ccc4ncnn4c3)n(-c3cccc(C)n3)n2)c1 [Example 122, 5-([1,2,4]triazolo[1,5-α]pyridin-6-yl)-N-(3-acetylphenyl)-1-(6-methylpyridin-2-yl)-1H-pyrazole-3-carboxyamide] | 10 to 100
CC(=O)c1ccc(NC(=O)c2cc(-c3ccc4ncnn4c3)n(-c3cccc(C)n3)n2)cc1 [Example 123, 5-([1,2,4]triazolo[1,5-α]pyridin-6-yl)-N-(4-acetylphenyl)-1-(6-methylpyridin-2-yl)-1H-pyrazole-3-carboxyamide] | 10 to 100
Cc1cccc(-n2nc(C(=O)Nc3cccc(F)c3)cc2-c2ccc3ncnn3c2)n1 [Example 125, 5-([1,2,4]triazolo[1,5-α]pyridin-6-yl)-N-(3-fluorophenyl)-1-(6-methylpyridin-2-yl)-1H-pyrazole-3-carboxyamide] | 10 to 100
Cc1cccc(-n2nc(C(=O)Nc3ccc(F)cc3)cc2-c2ccc3ncnn3c2)n1 [Example 126, 5-([1,2,4]triazolo[1,5-α]pyridin-6-yl)-N-(4-fluorophenyl)-1-(6-methylpyridin-2-yl)-1H-pyrazole-3-carboxyamide] | ~10
Cc1cccc(-n2nc(C(=O)Nc3cccc(Br)c3)cc2-c2ccc3ncnn3c2)n1 [Example 131, 5-([1,2,4]triazolo[1,5-α]pyridin-6-yl)-N-(3-bromophenyl)-1-(6-methylpyridin-2-yl)-1H-pyrazole-3-carboxyamide] | 10 to 100
Cc1cccc(-n2nc(C(=O)Nc3ccc(Br)cc3)cc2-c2ccc3ncnn3c2)n1 [Example 132, 5-([1,2,4]triazolo[1,5-α]pyridin-6-yl)-N-(4-bromophenyl)-1-(6-methylpyridin-2-yl)-1H-pyrazole-3-carboxyamide] | ~10
Cc1cccc(-n2nc(C(=O)Nc3ccc(F)cc3F)cc2-c2ccc3ncnn3c2)n1 [Example 134, 5-([1,2,4]triazolo[1,5-α]pyridin-6-yl)-N-(2,4-difluorophenyl)-1-(6-methylpyridin-2-yl)-1H-pyrazole-3-carboxyamide] | 10 to 100
Cc1cccc(-n2nc(C(=O)Nc3cc(F)ccc3F)cc2-c2ccc3ncnn3c2)n1 [Example 135, 5-([1,2,4]triazolo[1,5-α]pyridin-6-yl)-N-(2,5-difluorophenyl)-1-(6-methylpyridin-2-yl)-1H-pyrazole-3-carboxyamide] | 10 to 100
Cc1cccc(-n2nc(C(=O)Nc3ccc(F)c(F)c3)cc2-c2ccc3ncnn3c2)n1 [Example 136, 5-([1,2,4]triazolo[1,5-α]pyridin-6-yl)-N-(3,4-difluorophenyl)-1-(6-methylpyridin-2-yl)-1H-pyrazole-3-carboxyamide] | ~10
Cc1cccc(-n2nc(C(=O)Nc3cc(F)cc(F)c3)cc2-c2ccc3ncnn3c2)n1 [Example 137, 5-([1,2,4]triazolo[1,5-α]pyridin-6-yl)-N-(3,5-difluorophenyl)-1-(6-methylpyridin-2-yl)-1H-pyrazole-3-carboxyamide] | 10 to 100
Cc1cccc(-n2nc(C(=O)Nc3ccc(F)c(Cl)c3)cc2-c2ccc3ncnn3c2)n1 [Example 140, 5-([1,2,4]triazolo[1,5-α]pyridin-6-yl)-N-(3-chloro-4-fluorophenyl)-1-(6-methylpyridin-2-yl)-1H-pyrazole-3-carboxyamide] | ~10
Cc1cccc(-n2nc(C(=O)Nc3ccc(F)cc3Br)cc2-c2ccc3ncnn3c2)n1 [Example 142, 5-([1,2,4]triazolo[1,5-α]pyridin-6-yl)-N-(2-bromo-4-fluorophenyl)-1-(6-methylpyridin-2-yl)-1H-pyrazole-3-carboxyamide] | 10 to 100
CSc1cccc(NC(=O)c2cc(-c3ccc4ncnn4c3)n(-c3cccc(C)n3)n2)c1 [Example 143] | 6.6
CSc1ccc(NC(=O)c2cc(-c3ccc4ncnn4c3)n(-c3cccc(C)n3)n2)cc1 [Example 144] | 10 to 100
Cc1cccc(-n2nc(C(=O)Nc3cccc([S+](C)[O-])c3)cc2-c2ccc3ncnn3c2)n1 (stereo not drawn) [Example 145, 5-([1,2,4]triazolo[1,5-α]pyridin-6-yl)-N-(3-(methylsulfinyl)phenyl)-1-(6-methylpyridin-2-yl)-1H-pyrazole-3-carboxyamide] | 15
Cc1cccc(-n2nc(C(=O)Nc3ccc([S+](C)[O-])cc3)cc2-c2ccc3ncnn3c2)n1 (stereo not drawn) [Example 146, 5-([1,2,4]triazolo[1,5-α]pyridin-6-yl)-N-(4-(methylsulfinyl)phenyl)-1-(6-methylpyridin-2-yl)-1H-pyrazole-3-carboxyamide] | 6

Results, then the compound that gave them:

IC50 [nM] | SMILES
10 to 100 | Cc1cccc(-n2nc(C(=O)Nc3ccccc3C)cc2-c2ccc3ncnn3c2)n1 [Example 115, 5-([1,2,4]triazolo[1,5-α]pyridin-6-yl)-1-(6-methylpyridin-2-yl)-N-(o-tolyl)-1H-pyrazole-3-carboxyamide]
31 | Cc1cccc(-n2nc(C(=O)Nc3ccccc3F)cc2-c2ccc3ncnn3c2)n1 [Example 124, 5-([1,2,4]triazolo[1,5-α]pyridin-6-yl)-N-(2-fluorophenyl)-1-(6-methylpyridin-2-yl)-1H-pyrazole-3-carboxyamide]
~100 | Cc1cccc(-n2nc(C(=O)Nc3ccccc3Cl)cc2-c2ccc3ncnn3c2)n1 [Example 127, 5-([1,2,4]triazolo[1,5-α]pyridin-6-yl)-N-(2-chlorophenyl)-1-(6-methylpyridin-2-yl)-1H-pyrazole-3-carboxyamide]
10 to 100 | Cc1cccc(-n2nc(C(=O)Nc3cccc(Cl)c3)cc2-c2ccc3ncnn3c2)n1 [Example 128, 5-([1,2,4]triazolo[1,5-α]pyridin-6-yl)-N-(3-chlorophenyl)-1-(6-methylpyridin-2-yl)-1H-pyrazole-3-carboxyamide]
10 to 100 | Cc1cccc(-n2nc(C(=O)Nc3ccc(Cl)cc3)cc2-c2ccc3ncnn3c2)n1 [Example 129, 5-([1,2,4]triazolo[1,5-α]pyridin-6-yl)-N-(4-chlorophenyl)-1-(6-methylpyridin-2-yl)-1H-pyrazole-3-carboxyamide]
10 to 100 | Cc1cccc(-n2nc(C(=O)Nc3ccccc3Br)cc2-c2ccc3ncnn3c2)n1 [Example 130, 5-([1,2,4]triazolo[1,5-α]pyridin-6-yl)-N-(2-bromophenyl)-1-(6-methylpyridin-2-yl)-1H-pyrazole-3-carboxyamide]
10 to 100 | Cc1cccc(-n2nc(C(=O)Nc3cccc(F)c3F)cc2-c2ccc3ncnn3c2)n1 [Example 133, 5-([1,2,4]triazolo[1,5-α]pyridin-6-yl)-N-(2,3-difluorophenyl)-1-(6-methylpyridin-2-yl)-1H-pyrazole-3-carboxyamide]
10 to 100 | Cc1cccc(-n2nc(C(=O)Nc3cccc(Cl)c3F)cc2-c2ccc3ncnn3c2)n1 [Example 138, 5-([1,2,4]triazolo[1,5-α]pyridin-6-yl)-N-(3-chloro-2-fluorophenyl)-1-(6-methylpyridin-2-yl)-1H-pyrazole-3-carboxyamide]
10 to 100 | Cc1cccc(-n2nc(C(=O)Nc3ccc(Cl)cc3F)cc2-c2ccc3ncnn3c2)n1 [Example 139, 5-([1,2,4]triazolo[1,5-α]pyridin-6-yl)-N-(4-chloro-2-fluorophenyl)-1-(6-methylpyridin-2-yl)-1H-pyrazole-3-carboxyamide]
10 to 100 | Cc1cccc(-n2nc(C(=O)Nc3ccc(Cl)c(Cl)c3)cc2-c2ccc3ncnn3c2)n1 [Example 141, 5-([1,2,4]triazolo[1,5-α]pyridin-6-yl)-N-(3,4-dichlorophenyl)-1-(6-methylpyridin-2-yl)-1H-pyrazole-3-carboxyamide]
